According to patent US8901124B2, “Pyridazine amide compounds useful as SYK inhibitors” (priority 2012, dated 2014):

Tested on: HUMAN WHOLE BLOOD
Experiment: IC50 in human whole blood
Type: cell-based

Row | SMILES | IC50 [nM]
1 | NC(=O)c1nnc(N[C@@H]2CCCC[C@@H]2N)cc1Nc1cccc(-n2nccn2)n1 [Compound I-23, 4-(6-(2H-1,2,3-triazol-2-yl)pyridin-2-ylamino)-6-((1R,2S)-2-aminocyclohexylamino)pyridazine-3-carboxamide] | 810
2 | Cc1ccc(Nc2cc(N[C@@H]3CCOC[C@@H]3N)nnc2C(N)=O)nc1C(C)C [Compound I-27, 6-((3R,4R)-3-Amino-tetrahydro-pyran-4-ylamino)-4-(6-isopropyl-5-methyl-pyridin-2-ylamino)-pyridazine-3-carboxylic acid amide] | 313
3 | CC(C)(O)c1cccc(Nc2cc(N[C@@H]3CCCC[C@@H]3N)nnc2C(N)=O)n1 [Compound I-37, 6-((1R,2S)-2-aminocyclohexylamino)-4-(6-(2-hydroxypropan-2-yl)pyridin-2-ylamino)pyridazine-3-carboxamide] | 2340
4 | CCCc1cc(C)cc(Nc2cc(N[C@@H]3CCCC[C@@H]3N)nnc2C(N)=O)n1 [Compound I-38, 6-((1R,2S)-2-aminocyclohexylamino)-4-(4-methyl-6-propylpyridin-2-ylamino)pyridazine-3-carboxamide] | 642
5 | CC(C)(C#N)c1cccc(Nc2cc(N[C@@H]3CCCC[C@@H]3N)nnc2C(N)=O)n1 [Compound I-36, 6-((1R,2S)-2-aminocyclohexylamino)-4-(6-(2-cyanopropan-2-yl)pyridin-2-ylamino)pyridazine-3-carboxamide] | 2090
6 | COc1nc(Nc2cc(N[C@@H]3CCOC[C@@H]3N)nnc2C(N)=O)ccc1C(C)C [Compound I-42, 6-((3R,4R)-3-aminotetrahydro-2H-pyran-4-ylamino)-4-(5-isopropyl-6-methoxypyridin-2-ylamino)pyridazine-3-carboxamide] | 909
7 | CC(C)(C)c1cccc(Nc2cc(N[C@@H]3CCOC[C@@H]3N)nnc2C(N)=O)n1 [Compound I-29, 6-((3R,4R)-3-aminotetrahydro-2H-pyran-4-ylamino)-4-(6-tert-butylpyridin-2-ylamino)pyridazine-3-carboxamide] | 1800
8 | CCOc1cccc(Nc2cc(N[C@@H]3CCCC[C@@H]3N)nnc2C(N)=O)n1 [Compound I-30, 6-((1R,2S)-2-aminocyclohexylamino)-4-(6-ethoxypyridin-2-ylamino)pyridazine-3-carboxamide] | 487
9 | NC(=O)c1nnc(N[C@@H]2CCCC[C@@H]2N)cc1Nc1cccc(-n2cccn2)n1 [Compound I-33, 4-(6-(1H-pyrazol-1-yl)pyridin-2-ylamino)-6-((1R,2S)-2-aminocyclohexylamino)pyridazine-3-carboxamide] | 1420

The remaining molecules from weak to strong by IC50, led by results:

Row | IC50 [nM] | SMILES
10 | 21500 | Cn1cnc2c(Nc3cc(N[C@@H]4CCCC[C@@H]4N)nnc3C(N)=O)cccc21 [Compound I-22, 6-((1R,2S)-2-aminocyclohexylamino)-4-(1-methyl-1H-benzo[d]imidazol-4-ylamino)pyridazine-3-carboxamide]
11 | 923 | Cc1cc(Nc2cc(N[C@@H]3CCCC[C@@H]3N)nnc2C(N)=O)nc(C(C)C)c1 [Compound I-35, 6-((1R,2S)-2-aminocyclohexylamino)-4-(6-isopropyl-4-methylpyridin-2-ylamino)pyridazine-3-carboxamide]
12 | 818 | CCCc1cc(C)cc(Nc2cc(N[C@@H]3CCOC[C@@H]3N)nnc2C(N)=O)n1 [Compound I-39, 6-((3R,4R)-3-aminotetrahydro-2H-pyran-4-ylamino)-4-(4-methyl-6-propylpyridin-2-ylamino)pyridazine-3-carboxamide]
13 | 372 | CC(C)Oc1cccc(Nc2cc(N[C@@H]3CCOC[C@@H]3N)nnc2C(N)=O)n1 [Compound I-43, 6-((3R,4R)-3-aminotetrahydro-2H-pyran-4-ylamino)-4-(6-isopropoxypyridin-2-ylamino)pyridazine-3-carboxamide]
14 | 332 | CCCc1nc(Nc2cc(N[C@@H]3CCOC[C@@H]3N)nnc2C(N)=O)ccc1OC [Compound I-40, 6-((3R,4R)-3-aminotetrahydro-2H-pyran-4-ylamino)-4-(5-methoxy-6-propylpyridin-2-ylamino)pyridazine-3-carboxamide]
